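These data come from cells grown in 96-well plates and exposed to compound for 48 hours at five concentrations. GI50: concentration for 50% inhibition of growth. TGI: concentration producing complete growth inhibition.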
Legend:
Assay in all cases: inhibition of tumour cell growth, NCI panel, 48 h
OVCAR-4 ovarian = test system: OVCAR-4 ovarian
SR leukemia = test system: SR leukemia
MOLT-4 leukemia = test system: MOLT-4 leukemia
PC-3 prostate = test system: PC-3 prostate
A549 NSCLC = test system: A549 NSCLC
SN12C renal = test system: SN12C renal
ACHN renal = test system: ACHN renal
SNB-75 CNS = test system: SNB-75 CNS
SF-295 CNS = test system: SF-295 CNS
NCI-H522 lung = test system: NCI-H522 lung
HOP-62 NSCLC = test system: HOP-62 NSCLC
U251 CNS = test system: U251 CNS
IGROV1 ovarian = test system: IGROV1 ovarian
COLO 205 colon = test system: COLO 205 colon
HL-60(TB) leukemia = test system: HL-60(TB) leukemia
HCC-2998 colon = test system: HCC-2998 colon
CCRF-CEM leukemia = test system: CCRF-CEM leukemia
OVCAR-3 ovarian = test system: OVCAR-3 ovarian
HT29 colon = test system: HT29 colon
NCI-H460 lung = test system: NCI-H460 lung
SK-MEL-28 melanoma = test system: SK-MEL-28 melanoma
LOX IMVI melanoma = test system: LOX IMVI melanoma
KM12 colon = test system: KM12 colon
786-0 renal = test system: 786-0 renal
TK-10 renal = test system: TK-10 renal
RXF 393 renal = test system: RXF 393 renal
SF-268 CNS = test system: SF-268 CNS
MDA-MB-231 breast = test system: MDA-MB-231 breast
SW-620 colon = test system: SW-620 colon
UACC-257 melanoma = test system: UACC-257 melanoma
A498 renal = test system: A498 renal
BT-549 breast = test system: BT-549 breast
MDA-MB-435 = test system: MDA-MB-435
NCI/ADR-RES ovarian = test system: NCI/ADR-RES ovarian
MALME-3M melanoma = test system: MALME-3M melanoma
HCT-15 colon = test system: HCT-15 colon
NCI-H23 lung = test system: NCI-H23 lung
SK-OV-3 ovarian = test system: SK-OV-3 ovarian
NCI-H226 lung = test system: NCI-H226 lung
SF-539 CNS = test system: SF-539 CNS
T-47D breast = test system: T-47D breast
K-562 leukemia = test system: K-562 leukemia
M14 melanoma = test system: M14 melanoma
RPMI-8226 leukemia = test system: RPMI-8226 leukemia
HS 578T breast = test system: HS 578T breast
UACC-62 melanoma = test system: UACC-62 melanoma
OVCAR-8 ovarian = test system: OVCAR-8 ovarian
HOP-92 NSCLC = test system: HOP-92 NSCLC
EKVX NSCLC = test system: EKVX NSCLC
HCT-116 colon = test system: HCT-116 colon
MCF7 breast = test system: MCF7 breast
DU-145 prostate = test system: DU-145 prostate
UO-31 renal = test system: UO-31 renal
SK-MEL-2 melanoma = test system: SK-MEL-2 melanoma
SNB-19 CNS = test system: SNB-19 CNS
SK-MEL-5 melanoma = test system: SK-MEL-5 melanoma
OVCAR-5 ovarian = test system: OVCAR-5 ovarian
CAKI-1 renal = test system: CAKI-1 renal

[N-]=[N+]=Nc1cccc(-c2n[nH]c(Cl)cc2=O)c1
TGI (OVCAR-4 ovarian): > 100 µM | TGI (SR leukemia): > 100 µM | TGI (MOLT-4 leukemia): > 100 µM | TGI (PC-3 prostate): > 100 µM | TGI (A549 NSCLC): > 100 µM | TGI (SN12C renal): > 100 µM | TGI (ACHN renal): > 100 µM | TGI (SNB-75 CNS): > 100 µM | TGI (SF-295 CNS): > 100 µM | TGI (NCI-H522 lung): > 100 µM | TGI (HOP-62 NSCLC): > 100 µM | TGI (U251 CNS): > 100 µM | TGI (IGROV1 ovarian): > 100 µM | TGI (COLO 205 colon): > 100 µM | TGI (HL-60(TB) leukemia): > 100 µM | TGI (HCC-2998 colon): > 100 µM | TGI (CCRF-CEM leukemia): > 100 µM | TGI (OVCAR-3 ovarian): > 100 µM | TGI (HT29 colon): > 100 µM | TGI (NCI-H460 lung): > 100 µM | TGI (SK-MEL-28 melanoma): > 100 µM | TGI (LOX IMVI melanoma): > 100 µM | TGI (KM12 colon): > 100 µM | TGI (786-0 renal): > 100 µM | TGI (TK-10 renal): > 100 µM | TGI (RXF 393 renal): > 100 µM | TGI (SF-268 CNS): > 100 µM | TGI (MDA-MB-231 breast): > 100 µM | TGI (SW-620 colon): > 100 µM | TGI (UACC-257 melanoma): > 100 µM | TGI (A498 renal): > 100 µM | TGI (BT-549 breast): > 100 µM | TGI (MDA-MB-435): > 100 µM | TGI (NCI/ADR-RES ovarian): > 100 µM | TGI (MALME-3M melanoma): > 100 µM | TGI (HCT-15 colon): > 100 µM | TGI (NCI-H23 lung): > 100 µM | TGI (SK-OV-3 ovarian): > 100 µM | TGI (NCI-H226 lung): > 100 µM | TGI (SF-539 CNS): > 100 µM | TGI (T-47D breast): > 100 µM | TGI (K-562 leukemia): > 100 µM | TGI (M14 melanoma): > 100 µM | TGI (RPMI-8226 leukemia): > 100 µM | TGI (HS 578T breast): > 100 µM | TGI (UACC-62 melanoma): > 100 µM | TGI (OVCAR-8 ovarian): > 100 µM | TGI (HOP-92 NSCLC): > 100 µM | TGI (EKVX NSCLC): > 100 µM | TGI (HCT-116 colon): > 100 µM | TGI (MCF7 breast): > 100 µM | TGI (DU-145 prostate): > 100 µM

COc1cc2nccc(Oc3ccc(NC(=O)C4(C(=O)Nc5ccc(F)cc5)CC4)cc3)c2cc1OC(=O)c1ccc(N)cc1
GI50 (SR leukemia): 0.626 µM | TGI (SR leukemia): > 100 µM | GI50 (PC-3 prostate): 2.5 µM | TGI (PC-3 prostate): > 100 µM | GI50 (UO-31 renal): 1.58 µM | TGI (UO-31 renal): 6.58 µM | GI50 (A549 NSCLC): 3.11 µM | TGI (A549 NSCLC): > 100 µM | GI50 (SK-MEL-2 melanoma): 2.38 µM | TGI (SK-MEL-2 melanoma): 14.5 µM | GI50 (SN12C renal): 1.39 µM | TGI (SN12C renal): > 100 µM | GI50 (ACHN renal): 3.73 µM | TGI (ACHN renal): > 100 µM | GI50 (SNB-75 CNS): 0.199 µM | TGI (SNB-75 CNS): 1.39 µM | GI50 (SF-295 CNS): 0.262 µM | TGI (SF-295 CNS): 1.47 µM | GI50 (NCI-H522 lung): 2.65 µM | TGI (NCI-H522 lung): > 100 µM | GI50 (IGROV1 ovarian): 6.92 µM | TGI (IGROV1 ovarian): > 100 µM | GI50 (HCC-2998 colon): 3.88 µM | TGI (HCC-2998 colon): > 100 µM | GI50 (CCRF-CEM leukemia): 2.6 µM | TGI (CCRF-CEM leukemia): > 100 µM | GI50 (OVCAR-3 ovarian): 4.36 µM | TGI (OVCAR-3 ovarian): > 100 µM | GI50 (NCI-H460 lung): 3.49 µM | TGI (NCI-H460 lung): 54.2 µM | GI50 (SK-MEL-28 melanoma): 1.34 µM | TGI (SK-MEL-28 melanoma): 5.16 µM | GI50 (LOX IMVI melanoma): 1.92 µM | TGI (LOX IMVI melanoma): 5.31 µM | GI50 (KM12 colon): 0.0936 µM | TGI (KM12 colon): > 100 µM | GI50 (SNB-19 CNS): 3.05 µM | TGI (SNB-19 CNS): > 100 µM | GI50 (786-0 renal): 1.81 µM | TGI (786-0 renal): 4.45 µM | GI50 (TK-10 renal): 6.62 µM | TGI (TK-10 renal): > 100 µM | GI50 (RXF 393 renal): 0.314 µM | TGI (RXF 393 renal): 1.99 µM | GI50 (SF-268 CNS): 1.63 µM | TGI (SF-268 CNS): > 100 µM | GI50 (MDA-MB-231 breast): 1.98 µM | TGI (MDA-MB-231 breast): 6.53 µM | GI50 (SW-620 colon): 2.92 µM | TGI (SW-620 colon): > 100 µM | GI50 (UACC-257 melanoma): 4.91 µM | TGI (UACC-257 melanoma): > 100 µM | GI50 (A498 renal): 2.03 µM | TGI (A498 renal): 4.53 µM | GI50 (BT-549 breast): 2.88 µM | TGI (BT-549 breast): > 100 µM | GI50 (MDA-MB-435): 2.18 µM | TGI (MDA-MB-435): > 100 µM | GI50 (NCI/ADR-RES ovarian): 3.74 µM | TGI (NCI/ADR-RES ovarian): > 100 µM | GI50 (MALME-3M melanoma): 2.47 µM | TGI (MALME-3M melanoma): > 100 µM | GI50 (HCT-15 colon): 2.17 µM | TGI (HCT-15 colon): > 100 µM | GI50 (NCI-H23 lung): 1.98 µM | TGI (NCI-H23 lung): > 100 µM | GI50 (SK-OV-3 ovarian): 2.95 µM | TGI (SK-OV-3 ovarian): 8.05 µM | GI50 (NCI-H226 lung): 3.11 µM | TGI (NCI-H226 lung): > 100 µM | GI50 (SF-539 CNS): 0.246 µM | TGI (SF-539 CNS): 2.04 µM | GI50 (T-47D breast): 2.92 µM | TGI (T-47D breast): > 100 µM | GI50 (K-562 leukemia): 1.09 µM | TGI (K-562 leukemia): 4.91 µM | GI50 (SK-MEL-5 melanoma): 4.46 µM | TGI (SK-MEL-5 melanoma): > 100 µM | GI50 (OVCAR-5 ovarian): 2.23 µM | TGI (OVCAR-5 ovarian): > 100 µM | GI50 (M14 melanoma): 2.79 µM | TGI (M14 melanoma): > 100 µM | GI50 (RPMI-8226 leukemia): 2.66 µM | TGI (RPMI-8226 leukemia): > 100 µM | GI50 (HS 578T breast): 0.29 µM | TGI (HS 578T breast): 2.07 µM | GI50 (CAKI-1 renal): 2.68 µM | TGI (CAKI-1 renal): > 100 µM | GI50 (UACC-62 melanoma): 2.85 µM | TGI (UACC-62 melanoma): > 100 µM | GI50 (OVCAR-8 ovarian): 5.77 µM | TGI (OVCAR-8 ovarian): > 100 µM | GI50 (HOP-92 NSCLC): 0.2 µM | TGI (HOP-92 NSCLC): 2.42 µM | GI50 (EKVX NSCLC): 5.31 µM | TGI (EKVX NSCLC): > 100 µM | GI50 (HCT-116 colon): 3.08 µM | TGI (HCT-116 colon): > 100 µM | GI50 (MCF7 breast): 1.72 µM | TGI (MCF7 breast): > 100 µM | GI50 (DU-145 prostate): 3.48 µM | TGI (DU-145 prostate): > 100 µM
